Experimental findings from US20100267775A1, “OXADIAZOLIDINEDIONE COMPOUND” (priority 2007, published 2010) are described below.

In one test the target is T1, human GPR40 (Homo sapiens, UniProt O14842, R211H).
T1 construct: expressed in transfected cells; host or cells: CHO dhfr- cells stably transfected with plasmid pEF-BOS-dhfr-GPR40
Kind of test: Measurement of GPR40 agonistic activity (intracellular calcium, FLIPR, CHO cell line expressing human GPR40). In kind it is cell-based. As to conditions: change in fluorescence intensity one minute after measurement. The text has this: Test Method 1: Measurement of GPR40 Agonistic Activity i) Cloning of Human GPR40
In accordance with procedures as described below, the full-length sequence of GPR40 was obtained by a polymerase chain reaction (PCR) to set human genomic DNA (Clontech) as a template.
Oligonucleotide which consists of a base sequence represented by SEQ ID NO. 1 was used as a forward primer, and oligonucleotide which consists of a base sequence represented by SEQ ID NO. 2 was used as a reverse primer. To each 5′ terminus of the forward primer and the reverse primer described above, a base sequence including the XbaI recognition site is attached. In the PCR, using Taq DNA polymerase (Ex Taq DNA polymerase; TAKARA BIO INC.), a cycle consisting of 94° C. (15 sec)/55° C. (30 sec)/72° C. (1 min) was repeated 30 times in the presence of 5% DMSO. As a result, the DNA fragment of about 0.9 kbp was amplified. This DNA fragment was digested with XbaI, followed by inserting into the XbaI site of plasmid pEF-BOS-dhfr (Nucleic Acids Research, 18, 5322, 1990) to obtain plasmid pEF-BOS-dhfr-GPR40.
The base sequence of GPR40 gene in plasmid pEF-BOS-dhfr-GPR40 was decided by a dideoxy terminator method using a DNA sequencer (ABI377 DNA Sequencer; Applied Biosystems). The base sequence of GPR40 gene was the same with the base sequence represented by SEQ ID NO. 3. The base sequence represented by SEQ ID NO. […] 4 […]
ii) Preparation of GPR40 Stable Expression Cell
A CHO dhfr cell (CHO cell deleting a dihydrofolate reductase (dhfr) gene) was used as a cell in which GPR 40 protein was expressed. In addition, the plasmid pEF-BOS-dhfr-GPR40 obtained in the above i) was used as an expressing plasmid to express GPR40 protein. To a 6 well plate (Asahi Techno Glass Corp.), the CHO dhfr cells were seeded to become 80 to 90% confluent in an aMEM medium having 10% fetal calf serum (FCS), and cultivated overnight. Then, 2 μg of plasmid pEF-BOS-dhfr-GPR40 per well was transferred generetically thereto using a transfection reagent (Lipofectamine 2000; Invitrogen Corporation). After cultivating for 24 hours subsequent to the gene transfer, the cell were diluted and reseeded. On this occasion, the αMEM medium having 10% FCS was changed for an αMEM medium having 10% FCS and no nucleic acid. After 20 days cultivation, formed cell colonies were collected respectively and cultivated, thereby obtaining CHO cells stably expressing GPR40. Among these, cells high-reactive to an oleic acid and a linoleic acid which were intrinsic ligands were selected. […]
iii) Measurement of GPR40 Agonistic Activity
The GPR40 agonistic activity was measured with fluctuation of the intracellular calcium concentration as an index by FLIPR (registered trademark, Molecular Devices Corporation). Hereinafter, test methods will be described.
A CHO cell line expressing human GPR40 was seeded with 6×10^3 per well to a 384-well black plate (Becton, Dickinson and Company), and cultivated in a CO2 incubator overnight. For a luminescent pigment, a Calcium-3 assay kit (Molecular Devices Corporation) was used, and dissolved in 10 ml of a HBSS-HEPES buffer (PH7.4, 1×HBSS, 20 mM HEPES, Invitrogen Corporation) for a bottle. 35.68 mg of probenecid (Sigma) was dissolved in 250 μl of 1M NaOH, and then 250 μl of a HBSS-HEPES buffer was added to blend. 16 ml of a HBSS-HEPES buffer, 640 μl of the luminescent pigment and 32 μl of probenecid were added to blend for a solution of the luminescent pigment per plate. The medium of the plate was removed, 40 μl of the solution of the luminescent pigment per well was dispensed, followed by incubating at room temperature for 2 hours. A compound to be inspected was dissolved in DMSO, and diluted with a HBSS-HEPES buffer. A reaction was initiated by 10 μl of dispensation, the fluctuation of the intracellular calcium concentration was measured by FLIPR. An EC50 value of the compound to be inspected was calculated from the dose-response curve of change in fluorescence intensity one minute after measurement.

For a further test, the system named is normal mice. The test can be described thus: Single oral glucose tolerance test on normal mice. It is filed as in vivo. To be noted: Mus musculus; for inhibition in vivo at 10 mg/kg: 0.5 h, read-out: Reduction rate of blood glucose level (%); for minimal effective dose: read-out: MED. As for the experimental part: Test Method 3: Single Oral Glucose Tolerance Test on Normal Mice
The anti-hyperglycemic action after glycemic load of the compound to be inspected was examined using normal mice. Hereinafter, the test method will be described.
Male ICR mice which was preparedly reared for one week (6-week-old) was fasted overnight, and used as an animal to be inspected. A compound to be inspected was 0.5% methylcellulose suspension, and the suspension was orally administered 30 minutes before the glucose (2 g/kg) load. With regard to some compounds to be inspected, prior blood drawing was performed (0 min value), and blood glucose levels were measured at 5, 15, 30, 60 and 120 minutes later glucose load when the compound to be inspected was orally administered. A control group was given 0.5% methylcellulose. The evaluation was carried out in the following manner. (Evaluation 1) The reduction rate of blood glucose levels after glucose loading (%) with respect to the control group was calculated at a point of glucose load which is 30 minutes after the oral administration of 10 mg/kg of the compound to be inspected. […] Ex represents example compound numbers.
(Evaluation 2) The reduction rate of blood glucose levels after glucose loading (%) with respect to the control group was calculated at a point of glucose load which is 30 minutes after the oral administration of 10, 3, 1, 0.3 or 0.1 mg/kg of the compound to be inspected. […] Ex represents example compound numbers. In addition, MED describing “below” in Table 3 means that a test was not carried out due to less than dose described.
The area under the blood concentration-time curve (AUC) of blood glucose levels for 0 to 120 minute(s) was calculated from the blood glucose levels before the blood drawing, and the blood glucose levels at 5, 15, 30, 60, and 120 minutes after the glucose load when 30, 10, 3, 1 or 0.3 mg/kg of the compound to be inspected was orally administered.

T1 sequence (O14842 whole entry R211H): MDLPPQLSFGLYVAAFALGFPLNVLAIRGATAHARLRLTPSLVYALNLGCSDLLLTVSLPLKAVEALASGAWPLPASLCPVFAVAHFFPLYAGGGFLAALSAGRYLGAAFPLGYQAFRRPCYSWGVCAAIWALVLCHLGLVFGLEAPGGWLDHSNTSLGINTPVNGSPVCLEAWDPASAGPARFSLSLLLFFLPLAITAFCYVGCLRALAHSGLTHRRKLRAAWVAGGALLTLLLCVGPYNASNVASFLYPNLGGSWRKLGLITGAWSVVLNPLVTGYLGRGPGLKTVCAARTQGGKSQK

In general, EC50 refers to the concentration giving half of the maximal effect. Regarding `Cc1cc(OC[C@@H](O)CO)cc(C)c1-c1cccc(COc2ccc(Cn3oc(=O)[n-]c3=O)cc2)c1C.[Na+]` [Example 7], the EC50 on human GPR40 is 410 nM. Also, in the test with normal mice, the inhibition in vivo at 10 mg/kg was found to be 30% and the minimal effective dose was determined as 10 mg/kg.

Consider `Cc1cc(OCCCNC(=O)C2CC2)cc(C)c1-c1cccc(COc2ccc(Cn3oc(=O)[n-]c3=O)cc2)c1C.[Na+]` [Example 21], for which, at human GPR40, the EC50 was 600 nM. For the same molecule, in the test with normal mice, the inhibition in vivo at 10 mg/kg amounted to 26% and the minimal effective dose stood at 3 mg/kg.

For the molecule `Cc1cc(OC[C@H](O)CO)cc(C)c1-c1cccc(COc2ccc(Cn3oc(=O)[n-]c3=O)cc2)c1C.[Na+]` [Example 26], at human GPR40, the EC50 was found to be 410 nM. Also, in the test on normal mice, the inhibition in vivo at 10 mg/kg was found to be 27% and the minimal effective dose stood at 10 mg/kg.

Consider `Cc1c(COc2ccc(Cn3oc(=O)[n-]c3=O)cc2)cccc1-c1cccc(OCCC(C)(C)O)c1C.[Na+]` [Example 27], for which the EC50 on human GPR40 is 230 nM. Moreover, in the test with normal mice, the inhibition in vivo at 10 mg/kg came out at 42% and the minimal effective dose is 1 mg/kg.

`Cc1cc(-c2cccc(COc3ccc(Cn4oc(=O)[n-]c4=O)cc3)c2C)c(C)cc1OCCC(C)(C)O.[Na+]` [Example 31]: the EC50 at human GPR40 stood at 69 nM. Moreover, in the test on normal mice, the inhibition in vivo at 10 mg/kg came out at 50% and the minimal effective dose came out at 1 mg/kg.

Turning to `Cc1c(COc2ccc(Cn3oc(=O)[n-]c3=O)cc2)cccc1-c1ccc(OCCC(C)(C)O)c(C)c1C.[Na+]` [Example 32], the EC50 on human GPR40 came out at 68 nM. Moreover, in the test with normal mice, the inhibition in vivo at 10 mg/kg amounted to 47% and the minimal effective dose came out at 1 mg/kg.

For the molecule `Cc1cc(OCC[C@@H](C)O)cc(C)c1-c1cccc(COc2ccc(Cn3oc(=O)[n-]c3=O)cn2)c1C.[Na+]` [Example 44], the EC50 on human GPR40 amounted to 190 nM. Moreover, in the test on normal mice, the inhibition in vivo at 10 mg/kg was determined as 34% and the minimal effective dose was under 0.3 mg/kg.

For `Cc1cc(OCC[C@H](C)O)cc(C)c1-c1cccc(COc2ccc(Cn3oc(=O)[n-]c3=O)cn2)c1C.[Na+]` [Example 45], the EC50 on human GPR40 stood at 280 nM. Besides, in the test on normal mice, the inhibition in vivo at 10 mg/kg was 35% and the minimal effective dose is 1 mg/kg.

As for `COC[C@@H](O)COc1cc(C)c(-c2cccc(COc3ccc(Cn4oc(=O)[n-]c4=O)cc3)c2C)c(C)c1.[Na+]` [Example 56], on human GPR40, the EC50 is 820 nM. Besides, in the test on normal mice, the inhibition in vivo at 10 mg/kg stood at 29% and the minimal effective dose turned out to be 3 mg/kg.

On to `Cc1cc(OCCC(C)(C)O)nc(C)c1-c1cccc(COc2ccc(Cn3oc(=O)[n-]c3=O)cc2)c1C.[Na+]` [Example 60], for which the EC50 at human GPR40 was determined as 160 nM. Further, in the test with normal mice, the inhibition in vivo at 10 mg/kg was determined as 45% and the minimal effective dose was under 3 mg/kg.

Turning to `Cc1cc(-c2cccc(COc3ccc(Cn4oc(=O)[n-]c4=O)cc3)c2C)c(C)cc1OCCO.[Na+]` [Example 63], on human GPR40, the EC50 came to 380 nM. In the test with normal mice, the inhibition in vivo at 10 mg/kg is 22% and the minimal effective dose is under 1 mg/kg.

Consider `Cc1cc(OC[C@@H](O)CO)cc(C)c1-c1cccc(CNc2ccc(Cn3oc(=O)[n-]c3=O)cc2)c1C.[Na+]` [Example 68], for which, on human GPR40, the EC50 turned out to be 22 nM. In the test with normal mice, the inhibition in vivo at 10 mg/kg amounted to 23% and the minimal effective dose was determined as 3 mg/kg.

For the molecule `Cc1cc(OC[C@H](O)CO)cc(C)c1-c1cccc(CNc2ccc(Cn3oc(=O)[n-]c3=O)cc2)c1C.[Na+]` [Example 69], the EC50 on human GPR40 worked out at 69 nM. In the test with normal mice, the inhibition in vivo at 10 mg/kg worked out at 34% and the minimal effective dose amounted to 1 mg/kg.

For the molecule `Cc1cc(OCCO)cc(C)c1-c1cccc(CNc2ccc(Cn3oc(=O)[n-]c3=O)cc2)c1C.[Na+]` [Example 70], the EC50 at human GPR40 came out at 70 nM. In the test with normal mice, the inhibition in vivo at 10 mg/kg came out at 31% and the minimal effective dose is 10 mg/kg.

Consider `CO[C@@H](CO)COc1cc(C)c(-c2cccc(COc3ccc(Cn4oc(=O)[n-]c4=O)cc3)c2C)c(C)c1.[Na+]` [Example 74], for which the EC50 at human GPR40 stood at 320 nM. In the test on normal mice, the inhibition in vivo at 10 mg/kg turned out to be 23% and the minimal effective dose came to 3 mg/kg.

For `Cc1cc(OCCO)cc(C)c1-c1cccc(CNc2ccc(Cn3oc(=O)[n-]c3=O)cn2)c1C.[Na+]` [Example 80], the EC50 on human GPR40 came to 250 nM. In the test with normal mice, the inhibition in vivo at 10 mg/kg worked out at 26% and the minimal effective dose stood at 10 mg/kg.

Turning to `Cc1cc(OCC[C@@H](C)O)nc(C)c1-c1cccc(CNc2ccc(Cn3oc(=O)[n-]c3=O)cc2)c1C.[Na+]` [Example 81], the EC50 on human GPR40 worked out at 160 nM. Besides, in the test on normal mice, the inhibition in vivo at 10 mg/kg was found to be 33% and the minimal effective dose is under 3 mg/kg.

For `Cc1cc(OCC[C@@H](C)O)nc(C)c1-c1cccc(COc2ccc(Cn3oc(=O)[n-]c3=O)cc2)c1C.[Na+]` [Example 84], the EC50 on human GPR40 worked out at 280 nM. Also, in the test on normal mice, the inhibition in vivo at 10 mg/kg was 35% and the minimal effective dose is under 3 mg/kg.

For `Cc1cc(OCCO)c(F)cc1-c1cccc(CNc2ccc(Cn3oc(=O)[n-]c3=O)cc2)c1C.[Na+]` [Example 85], at human GPR40, the EC50 stood at 420 nM. Also, in the test with normal mice, the inhibition in vivo at 10 mg/kg is 24% and the minimal effective dose came to 3 mg/kg.

Consider `Cc1cc(-c2cccc(CNc3ccc(Cn4oc(=O)[n-]c4=O)cc3)c2C)c(C)nc1OCCO.[Na+]` [Example 89], for which the EC50 on human GPR40 came to 110 nM. In addition, in the test on normal mice, the inhibition in vivo at 10 mg/kg came to 25% and the minimal effective dose amounted to 3 mg/kg.

Turning to `Cc1cc(OCCO)c(F)cc1-c1cccc(COc2ccc(Cn3oc(=O)[n-]c3=O)cc2)c1C.[Na+]` [Example 94], at human GPR40, the EC50 stood at 640 nM. In the test on normal mice, the inhibition in vivo at 10 mg/kg was 39% and the minimal effective dose worked out at 3 mg/kg.

Turning to `Cc1cc(-c2cccc(CNc3ccc(Cn4oc(=O)[n-]c4=O)cc3)c2C)c(C)cc1OC[C@@H](O)CO.[Na+]` [Example 96], on human GPR40, the EC50 was found to be 190 nM. In addition, in the test with normal mice, the inhibition in vivo at 10 mg/kg is 23% and the minimal effective dose turned out to be 10 mg/kg.

Turning to `Cc1cc(-c2cccc(CNc3ccc(Cn4oc(=O)[n-]c4=O)cc3)c2C)c(C)cc1OC[C@H](O)CO.[Na+]` [Example 97], the EC50 at human GPR40 was 190 nM. Further, in the test on normal mice, the inhibition in vivo at 10 mg/kg is 29% and the minimal effective dose is 10 mg/kg.

Regarding `Cc1c(CNc2ccc(Cn3oc(=O)[nH]c3=O)cc2)cccc1-c1cccc(OCCO)c1C` [Example 107], at human GPR40, the EC50 amounted to 93 nM.
